Reference: PubChem BioAssay AID330 (DTP/NCI, 2004)
Where “and” joins values, the source holds several entries; their conditions need not be identical. Equal entries are not always repeated. Inconclusive results and toxic doses are left out. The calls were made as follows: active = survival T/C of 150% or more; inactive = T/C below 125% in these data.

Tested on: P388 leukemia ip, CD2F1 mice, survival T/C
Assay: NCI In Vivo Anticancer Drug Screen. Data for tumor model P388 Leukemia (intraperitoneal) in CD2F1 (CDF1) mice
Details: endpoint: median survival time, higher = longer survival
How it was run: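 Mice carrying the transplanted tumor received test compound or vehicle. Survival was recorded in each group, and the value is the treated-group measurement divided by that of the vehicle-treated control group.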

[1] = dose: 50.0 mg/kg/injection, schedule: Q01DX009 (ip), vehicle: Klucel (hydroxypropylcellulose) (HPC)
[2] = dose: 100.0 mg/kg/injection, schedule: Q01DX009 (ip), vehicle: Klucel (hydroxypropylcellulose) (HPC)
[3] = dose: 200.0 mg/kg/injection, schedule: Q01DX009 (ip), vehicle: Klucel (hydroxypropylcellulose) (HPC)
[4] = dose: 50.0 mg/kg/injection, schedule: Q01DX009 (ip), vehicle: saline with Tween-80
[5] = dose: 100.0 mg/kg/injection, schedule: Q01DX009 (ip), vehicle: saline with Tween-80
[6] = dose: 50.0 mg/kg/injection, schedule: Q01DX005 (ip), vehicle: saline with Tween-80
[7] = dose: 200.0 mg/kg/injection, schedule: Q01DX005 (ip), vehicle: saline with Tween-80
[8] = dose: 100.0 mg/kg/injection, schedule: Q04DX003 (ip), vehicle: saline with Tween-80
[9] = dose: 200.0 mg/kg/injection, schedule: Q01DX009 (ip), vehicle: saline with Tween-80
[10] = dose: 200.0 mg/kg/injection, schedule: Q04DX003 (ip), vehicle: saline with Tween-80

Measured: T/C

Cc1ccc(NC(=O)Nc2cc(S(=O)(=O)O)ccc2Oc2ccccc2Cl)cc1
inactive: dose: 100.0 mg/kg/injection, schedule: Q04DX003 (ip), vehicle: saline sonified 100 % of control | dose: 200.0 mg/kg/injection, schedule: Q04DX003 (ip), vehicle: saline sonified 90 % of control | dose: 400.0 mg/kg/injection, schedule: Q04DX003 (ip), vehicle: saline sonified 100 % of control

CN(c1ccccc1)c1cc(O)[nH]c(=O)c1
inactive: dose: 12.5 mg/kg/injection, schedule: Q01DX009 (ip), vehicle: water 96 % of control | dose: 25.0 mg/kg/injection, schedule: Q01DX009 (ip), vehicle: water 111 % of control | dose: 50.0 mg/kg/injection, schedule: Q01DX009 (ip), vehicle: water 99 % of control | dose: 100.0 mg/kg/injection, schedule: Q01DX009 (ip), vehicle: water 100 % of control | dose: 200.0 mg/kg/injection, schedule: Q01DX009 (ip), vehicle: water 97 % of control

Cc1ccc(S(=O)(=O)N2CC3CC(C2)C(=O)NC3=O)cc1
inactive: [1] 104 % of control | [2] 107 % of control | [3] 92 % of control

Cn1cnc([N+](=O)[O-])c1N1CCN(c2ccccc2)CC1
inactive: dose: 100.0 mg/kg/injection, schedule: Q01DX001 (ip), vehicle: saline with Tween-80 97 % of control | dose: 200.0 mg/kg/injection, schedule: Q01DX001 (ip), vehicle: saline with Tween-80 93 % of control | dose: 400.0 mg/kg/injection, schedule: Q01DX001 (ip), vehicle: saline with Tween-80 94 % of control

O=C(CCl)N1c2ccccc2Sc2c1ccc1ccccc21
inactive: dose: 3.12 mg/kg/injection, schedule: Q01DX009 (ip), vehicle: saline with Tween-80 103 % of control | dose: 6.25 mg/kg/injection, schedule: Q01DX009 (ip), vehicle: saline with Tween-80 104 % of control | dose: 6.25 mg/kg/injection, schedule: Q01DX009 (ip), vehicle: suspension in saline 100 % of control | dose: 12.5 mg/kg/injection, schedule: Q01DX009 (ip), vehicle: saline with Tween-80 120 % of control | dose: 12.5 mg/kg/injection, schedule: Q01DX009 (ip), vehicle: suspension in saline 102 % of control and 122 % of control | dose: 25.0 mg/kg/injection, schedule: Q01DX009 (ip), vehicle: saline with Tween-80 116 % of control | dose: 25.0 mg/kg/injection, schedule: Q01DX009 (ip), vehicle: suspension in saline 103 % of control and 118 % of control | [4] 116 % of control | dose: 50.0 mg/kg/injection, schedule: Q01DX009 (ip), vehicle: suspension in saline 103 % of control | [5] 110 % of control | dose: 100.0 mg/kg/injection, schedule: Q01DX009 (ip), vehicle: suspension in saline 102 % of control and 123 % of control | dose: 200.0 mg/kg/injection, schedule: Q01DX009 (ip), vehicle: suspension in saline 108 % of control

COc1ccc(C2c3cc(OC)c(OC)cc3CC3C(=O)OCC32)cc1OC (centres undefined)
inactive: dose: 50.0 mg/kg/injection, schedule: Q01DX005 (ip), vehicle: Klucel (hydroxypropylcellulose) (HPC) 94 % of control and 107 % of control | dose: 100.0 mg/kg/injection, schedule: Q01DX005 (ip), vehicle: Klucel (hydroxypropylcellulose) (HPC) 100 % of control and 97 % of control | dose: 200.0 mg/kg/injection, schedule: Q01DX005 (ip), vehicle: Klucel (hydroxypropylcellulose) (HPC) 112 % of control and 103 % of control

N=C(N)c1cn(C2OC(CO)C(O)C2O)c2ncnc(N)c12 (centres undefined)
active: dose: 1.33 mg/kg/injection, schedule: Q01DX009 (ip), vehicle: saline 178 % of control | dose: 2.0 mg/kg/injection, schedule: Q01DX009 (ip), vehicle: saline 187 % of control | dose: 3.0 mg/kg/injection, schedule: Q01DX009 (ip), vehicle: saline 183 % of control | dose: 4.5 mg/kg/injection, schedule: Q01DX009 (ip), vehicle: saline 192 % of control | dose: 7.5 mg/kg/injection, schedule: Q04DX003 (ip), vehicle: saline 163 % of control

C=C(C)C(=O)NCC(=O)Nc1ccc(CC(NC(C)=O)C(=O)OC)cc1 (centres undefined)
inactive: [6] 102 % of control | dose: 100.0 mg/kg/injection, schedule: Q01DX005 (ip), vehicle: saline with Tween-80 100 % of control | [7] 89 % of control

Cc1ccc2ccccc2c1N(CC(=O)O)S(=O)(=O)c1ccccc1
inactive: [5] 100 % of control | [8] 100 % of control | [9] 110 % of control | [10] 100 % of control | dose: 400.0 mg/kg/injection, schedule: Q01DX009 (ip), vehicle: saline with Tween-80 120 % of control | dose: 400.0 mg/kg/injection, schedule: Q04DX003 (ip), vehicle: saline with Tween-80 109 % of control

Cc1nn(C(=O)c2ccncc2)c(C)c1N=Nc1ccc([N+](=O)[O-])cc1
inactive: [1] 92 % of control | [2] 93 % of control

Cc1cc(C)nc(NS(=O)(=O)c2ccc(NC(=O)Nc3ccc([N+](=O)[O-])cc3Cl)cc2)n1
inactive: [1] 94 % of control | [2] 86 % of control

CCOc1c/c(=N\N=C(/C)c2ccc(Cl)cc2)n(C)c(=O)n1C
inactive: [1] 93 % of control | [2] 96 % of control | [3] 100 % of control

COC1NC(=O)Oc2c(F)cccc21 (centres undefined)
inactive: dose: 12.5 mg/kg/injection, schedule: Q01DX009 (ip), vehicle: Klucel (hydroxypropylcellulose) (HPC) 100 % of control | dose: 25.0 mg/kg/injection, schedule: Q01DX009 (ip), vehicle: Klucel (hydroxypropylcellulose) (HPC) 95 % of control | [1] 99 % of control | [2] 95 % of control | [3] 104 % of control

CN(C)/C=C(/N=C(C#N)C#N)C1OCCO1
inactive: dose: 12.5 mg/kg/injection, schedule: Q01DX005 (ip), vehicle: saline with Tween-80 100 % of control | dose: 25.0 mg/kg/injection, schedule: Q01DX005 (ip), vehicle: saline with Tween-80 112 % of control | [6] 117 % of control

Nc1nnc(N)n1-n1c(N)nnc1N
inactive: dose: 15.0 mg/kg/injection, schedule: Q01DX005 (ip), vehicle: saline 104 % of control | dose: 30.0 mg/kg/injection, schedule: Q01DX005 (ip), vehicle: saline 99 % of control | dose: 60.0 mg/kg/injection, schedule: Q01DX005 (ip), vehicle: saline 100 % of control and 104 % of control

NCCn1[nH]c(=O)c2ncccc2c1=O
inactive: dose: 60.0 mg/kg/injection, schedule: Q01DX005 (ip), vehicle: saline with Tween-80 108 % of control | dose: 120.0 mg/kg/injection, schedule: Q01DX005 (ip), vehicle: saline with Tween-80 105 % of control

NN1C(=O)CS/C1=N\C(=S)N/N=C1/SCC(=O)N1N
inactive: dose: 0.04 mg/kg/injection, schedule: Q01DX009 (ip), vehicle: saline 94 % of control | dose: 0.09 mg/kg/injection, schedule: Q01DX009 (ip), vehicle: saline 97 % of control | dose: 0.19 mg/kg/injection, schedule: Q01DX009 (ip), vehicle: saline 99 % of control | dose: 0.78 mg/kg/injection, schedule: Q01DX009 (ip), vehicle: saline 98 % of control and 99 % of control

COC(=O)c1cc(O)c2c(c1C(=O)OC)C[C@H]1[C@@H]3CCC4=CC(=O)CC[C@]4(C)[C@H]3CC[C@]21C
inactive: dose: 1.5 mg/kg/injection, schedule: Q01DX005 (ip), vehicle: saline with Tween-80 93 % of control | dose: 3.0 mg/kg/injection, schedule: Q01DX005 (ip), vehicle: saline with Tween-80 91 % of control | dose: 6.25 mg/kg/injection, schedule: Q01DX005 (ip), vehicle: saline with Tween-80 92 % of control | [7] 86 % of control

O=C(O)COc1ccc2ccccc2c1
inactive: [5] 90 % of control | [8] 100 % of control | [9] 100 % of control | [10] 110 % of control

O=C(Nc1ccccc1)Nc1nccs1
inactive: [4] 92 % of control | [5] 96 % of control | [9] 93 % of control

Cc1cc2oc(=O)cc(C(=O)O)c2c(=O)o1
inactive: dose: 100.0 mg/kg/injection, schedule: Q04DX003 (ip), vehicle: Klucel (hydroxypropylcellulose) (HPC) 102 % of control | dose: 200.0 mg/kg/injection, schedule: Q04DX003 (ip), vehicle: Klucel (hydroxypropylcellulose) (HPC) 95 % of control | dose: 400.0 mg/kg/injection, schedule: Q04DX003 (ip), vehicle: Klucel (hydroxypropylcellulose) (HPC) 87 % of control

COc1cccc2c1C(=O)c1c(O)c3c(c(O)c1C2=O)C[C@@](O)(C(C)=O)C[C@@H]3OC1CC(O)C(O)C(C)O1 (some centres undefined)
active: dose: 100.0 mg/kg/injection, schedule: Q04DX003 (ip), vehicle: water 161 % of control | dose: 200.0 mg/kg/injection, schedule: Q04DX003 (ip), vehicle: water 192 % of control
inactive: dose: 12.5 mg/kg/injection, schedule: Q04DX003 (ip), vehicle: water 123 % of control
